Laboratory results taken from the supplement of paper PMC10307832.

Key:
Assay in all cases: relative viability (nuclei count vs DMSO), 5 days (fraction); higher = more cells survive
[1] = tested on: EPLC-272H; settings: first compound 20 µM
In short: (§1)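 Lung cancer cell lines in 1536-well plates got either a single drug or a fixed anchor-drug dose together with five library-drug doses (not always all listed) in √10 steps, by pin tool, on the day after seeding. Nuclei were counted after 5 days, and relative viability is the treated-to-vehicle ratio of nuclei counts. Values are medians of duplicate plates.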

[2] = tested on: NCI-H322M
In short: as §1

[3] = tested on: NCI-H1792
In short: as §1

[4] = tested on: H3255
In short: as §1

[5] = tested on: HCC-15
In short: as §1

[6] = tested on: LCLC-97TM1
In short: as §1

[7] = tested on: HCC-827
In short: as §1

[8] = tested on: LC-2-ad
In short: as §1

[9] = tested on: NCI-H1915
In short: as §1

[10] = tested on: NCI-H522
In short: as §1

[11] = tested on: SW 900
In short: as §1

[12] = tested on: EMC-BAC-2
In short: as §1

Structure (SMILES): COCC1(CO)C(=O)C2CCN1CC2 (configuration not stated) [PRIMA-1MET] + Nc1ncn([C@H]2C[C@H](O)[C@@H](CO)O2)c(=O)n1 [Decitabine] (partner 2 µM)
- relative viability [1]: 0.272
- relative viability ([2]; first compound 0.2 µM): 0.725
- relative viability ([2]; first compound 0.6325 µM): 0.696
- relative viability ([2]; first compound 6.325 µM): 0.714
- relative viability ([2]; first compound 20 µM): 0.6
- relative viability ([3]; first compound 0.2 µM): 0.523
- relative viability ([3]; first compound 6.325 µM): 0.515
- relative viability ([3]; first compound 20 µM): 0.434
- relative viability ([4]; first compound 0.2 µM): 0.553
- relative viability ([4]; first compound 0.6325 µM): 0.54
- relative viability ([4]; first compound 2 µM): 0.524
- relative viability ([4]; first compound 6.325 µM): 0.695
- relative viability ([4]; first compound 20 µM): 0.522
- relative viability ([5]; first compound 0.2 µM): 0.663
- relative viability ([5]; first compound 0.6325 µM): 0.373
- relative viability ([5]; first compound 2 µM): 0.647
- relative viability ([5]; first compound 6.325 µM): 0.585
- relative viability ([5]; first compound 20 µM): 0.563
- relative viability ([6]; first compound 0.2 µM): 0.286
- relative viability ([6]; first compound 0.6325 µM): 0.163
- relative viability ([6]; first compound 2 µM): 0.209
- relative viability ([6]; first compound 6.325 µM): 0.153
- relative viability ([6]; first compound 20 µM): 0.246
- relative viability ([7]; first compound 0.2 µM): 0.343
- relative viability ([7]; first compound 0.6325 µM): 0.157
- relative viability ([7]; first compound 2 µM): 0.302
- relative viability ([7]; first compound 6.325 µM): 0.384
- relative viability ([7]; first compound 20 µM): 0.305
- relative viability ([8]; first compound 0.2 µM): 0.902
- relative viability ([8]; first compound 0.6325 µM): 0.607
- relative viability ([8]; first compound 2 µM): 0.773
- relative viability ([8]; first compound 6.325 µM): 0.776
- relative viability ([8]; first compound 20 µM): 0.776
- relative viability ([9]; first compound 0.2 µM): 0.278
- relative viability ([9]; first compound 0.6325 µM): 0.234
- relative viability ([9]; first compound 2 µM): 0.252
- relative viability ([9]; first compound 6.325 µM): 0.256
- relative viability ([9]; first compound 20 µM): 0.27
- relative viability ([10]; first compound 0.2 µM): 0.648
- relative viability ([10]; first compound 0.6325 µM): 0.592
- relative viability ([10]; first compound 2 µM): 0.573
- relative viability ([10]; first compound 6.325 µM): 0.672
- relative viability ([10]; first compound 20 µM): 0.178
- relative viability ([11]; first compound 0.2 µM): 0.402
- relative viability ([11]; first compound 0.6325 µM): 0.386
- relative viability ([11]; first compound 6.325 µM): 0.425
- relative viability ([11]; first compound 20 µM): 0.0976
- relative viability ([12]; first compound 0.2 µM): 1
- relative viability ([12]; first compound 0.6325 µM): 0.818
- relative viability ([12]; first compound 2 µM): 0.967
- relative viability ([12]; first compound 6.325 µM): 0.938
- relative viability ([12]; first compound 20 µM): 0.928
